Patent US7704997B1, “Amino-tetrazole analogues and methods of use” (Abbott Laboratories, priority 2004, dated 2010)

Target: T1, P2X7 receptor (Homo sapiens, UniProt Q99572)
T1 construct: host or cells: THP-1 monocytic cells differentiated overnight with LPS (25 ng/ml) and IFN-gamma (10 ng/ml)
T1 sequence (Q99572 1-595): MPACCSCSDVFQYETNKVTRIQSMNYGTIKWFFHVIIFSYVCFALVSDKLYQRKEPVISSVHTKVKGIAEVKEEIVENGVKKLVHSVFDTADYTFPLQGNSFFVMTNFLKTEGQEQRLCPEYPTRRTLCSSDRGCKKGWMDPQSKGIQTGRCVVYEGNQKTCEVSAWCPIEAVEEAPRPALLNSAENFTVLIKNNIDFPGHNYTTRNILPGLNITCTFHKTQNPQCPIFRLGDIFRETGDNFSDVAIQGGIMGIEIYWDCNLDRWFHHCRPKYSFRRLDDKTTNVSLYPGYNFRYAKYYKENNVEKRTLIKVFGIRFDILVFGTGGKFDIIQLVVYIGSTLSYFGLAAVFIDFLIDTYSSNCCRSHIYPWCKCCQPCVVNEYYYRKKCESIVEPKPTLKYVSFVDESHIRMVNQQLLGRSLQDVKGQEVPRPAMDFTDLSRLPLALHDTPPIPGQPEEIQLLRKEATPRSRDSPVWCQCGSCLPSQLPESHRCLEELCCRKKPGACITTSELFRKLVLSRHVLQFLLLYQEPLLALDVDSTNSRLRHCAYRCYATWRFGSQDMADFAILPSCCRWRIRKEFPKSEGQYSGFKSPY
Assay: P2X7 mediated pore formation (YO-PRO dye uptake, FLIPR)
Type: cell-based
Conditions: THP-1 cells
From the text: Tissue Culture: Cells of the THP-1 monocytic cell line (American Type Culture Collection, Rockville, Md.) were maintained in the log phase of growth in RPMI medium containing high glucose and 10% fetal calf serum (Invitrogen, Carlsbad, Calif.) according to established procedures (Humphrey B D and Dubyak G R (1996), Induction of the P2z/P2X7 Nucleotide Receptor and Associated Phospholipase D Activity by Lipopolysaccharide and IFN-γ in the Human THP-1 Monocytic Cell Line. J. Immunology 157:5627-37). Fresh vials of frozen THP-1 cells were initiated for growth every eight weeks. […]
P2X7 Mediated Pore Formation. […] Accordingly, the inhibitory activity of the antagonists of the present invention was determined by their capacity to inhibit the agonist-induced pore formation using the fluorescent dye YO-PRO (MW=629) and Fluorometric Imaging Plate Reader (FLIPR, Molecular Devices, Sunnydale, Calif.). […] The intensity of the fluorescence was captured by the CCD camera every 15 seconds for the first 10 minutes of agonist exposure followed by every 20 seconds for an additional 50 minutes with the data being digitally transferred to an interfaced PC. […] The test compounds were incubated for 10 minutes with the THP-1 cells at room temperature, after which the cells were stimulated with BzATP and fluorescence measured as described above in the […] of the antagonist. […]

## benzoylbenzoic ATP [BzATP]
  EC70 value for agonist activation: 50 µM
